Values joined by “and” are separate entries in the source; they are usually repeats but may differ in a detail not shown here. Identical values can stand only once. Each block holds one molecule with its values, some of them ahead of it.
Assays:
T9NB1-RLuc8 = test: BRET^2 competitive assay for TCC with nanobody sensor T9NB1-RLuc8/TCC-4′-S—(CH2)2—CO-GFP^2; assay type: binding, camelid; details: 10 nM T9NB1-RLuc8 and 10 nM TCC-4′-S—(CH2)2—CO-GFP^2, 2% DMSO/PBS, 5 minutes at 22° C.
Description: Instrumentation: Simultaneous dual emission BRET measurements were carried out with a CLARIOstar microplate reader (BMG LabTech). BRET^2 measurements used the BRET^2 emission filter set comprising RLuc/CLZ400a emission filter (410 nm bandpass, 80 nm) and the GFP^2 emission filter (515 nm bandpass, 30 nm). BRET^2 ratios were calculated as ratios of integrated acceptor emission channel intensity to integrated donor emission channel intensity.
BRET^2 assay: All reactions were carried out in white 96-well plates (Perkin-Elmer, Australia). A final concentration of 10 nM of T9NB1-RLuc8 and 10 nM of TCC-4′-S—(CH2)2—CO-GFP^2 were used for all assays, in a final volume of 100 μL 2% DMSO in PBS.
To construct a calibration curve, 10 nM of T9NB1-RLuc8 and 10 nM of TCC-4′-S—(CH2)2—CO-GFP^2 were incubated for 5 minutes at 22° C. with a range of different final concentrations of TCC, namely 1, 3, 6.3, 12.5, 25, 50, 100 and 200 nM, added from a stock of TCC in DMSO or DMSO only (2% final concentration in PBS). At the end of the incubation time, 1 μL of coelenterazine 400a (1 mM stock) in EtOH was added to the reaction mixture (final [CLZ400a]=10 μM) and the luminescence intensities recorded immediately. The BRET^2 ratios were calculated and are presented as a function of the concentration of TCC in FIG. 8. […]

Anti-FLAG mAb [1] = test: Competitive BRET calibration for FLAG peptide, mAb-24/36-RLuc8 conjugate, Clariostar plate-reader; assay type: binding; details: 5 nM mAb-24/36-RLuc8, 10 nM FLAG-GFP^2, 5 minute incubation
Description: A calibration was also performed using the Clariostar plate-reader (BMG) and the antibody-24/36-RLuc8 conjugate. Measurements were made in the bioluminescence mode and the dual linear variable filters were set to 410-80 (Gain: 3300) for RLuc8 emission and 515-30 (Gain: 4095) for GFP^2 emission. An integration time of 1.54 s was used. Coelenterazine 400a was prepared by adding 100 μL ethanol to a dried aliquot (0.5 mM), with 1 μL added to the final assay to give a final concentration of 5 μM. A final concentration of 5 nM of RLuc8-conjugate and 10 nM GFP^2-FLAG was used for assays. The final assay volume was 100 μL with PBS (with BSA (1 mg/ml) used to make up the volume.
To construct a standard curve using the Clariostar, 5 nM mAb-24/36-RLuc8 conjugate was added to 10 nM FLAG-GFP^2 in PBS with BSA (1 mg/mL) and the mixture incubated with unlabelled FLAG peptide (various concentrations) for 5 minutes at 28° C. Coelenterazine 400a was added and the BRET response determined. BRET ratio was calculated by dividing the GFP^2 intensity (average 0-13.86 s) by the RLuc8 intensity (average 0-13.86 s). The BRET ratios were normalised using the normalisation function in Graphpad Prism 7 for Windows, plotted against Log [FLAG] values and fitted with a Log [Agonist] vs normalized response—variable slope model.

Anti-FLAG mAb [2] = test: Competitive BRET binding assay for FLAG peptide, antibody-12/36-RLuc8 conjugate, Fluorostar plate-reader; details: mAb-12/36-RLuc8 50 nM, 200 nM FLAG-GFP^2, Fluorostar
Description: In order to determine whether the immunosensors of the present invention can be used to detect and measure the concentration of an analyte, the antibody-12/36-RLuc8 conjugate was incubated with 200 nM FLAG-GFP^2 and varying concentrations of FLAG peptide (from 256 μM to less than 0.5 nM) for 5 minutes before coelenterazine 400a was added and the BRET ratio determined using the Fluorostar plate-reader as described in Example 9. The BRET ratios were plotted against Log [FLAG] values.

[3] = Luciferase activity with Coelenterazine 400a; assay type: biochemical
Description: Luciferase activity: Coelenterazine 400a (Cayman Chemicals) (6-phenyl-2,8-bis(phenylmethyl)-imidazo[1,2-a]pyrazin-3(7H)-one) (1 mg) was dissolved in 10.2 mL ethanol and partitioned into 200 μL aliquots which were dried (Speedivac) and stored at −20° C. until use.
Coelenterazine 400a (50 nmol) was dissolved in 50 μL ethanol and 450 μL water was added. RLuc8 monomer (2.4 mg/mL) and RLuc8 dimer (4.8 mg/mL) were diluted in 1 mg/mL BSA in buffer. In a well of a white 96-well Optiplate (Perkin Elmer) was added TBS, PBS or 100 mM sodium phosphate pH 7.0, 2 μL luciferase enzyme (1/10 or 1/100 dilution) and 5 μL of 0.1 mM Coelenterazine 400a solution. The final volume in each well was 100 μL. The light produced was measured in a FLUOstar Optima (BMG Labtech) using luminescence optics and no filter.

EC50 (T9NB1-RLuc8): 0.0173 µM and 0.017 µM
Molecule: O=C(Nc1ccc(Cl)cc1)Nc1ccc(Cl)c(Cl)c1 [TCC, triclocarban]

EC50 (Anti-FLAG mAb [1]): 0.00141 µM
EC50 (Anti-FLAG mAb [2]): 0.274 µM
Molecule: DYKDDDDK [FLAG peptide]

Luciferase activity, monomer versus dimer ([3]; Coelenterazine 400a, FLUOstar Optima, no filter): more active than the dimeric form
B1: N-His-RLuc8: N-terminal hexahistidine tagged Renilla reniformis luciferase RLuc8-LPETGG, SEQ ID NO: 5 (protein)
chain: MGHHHHHHGTENLYFQGSASKVYDPEQRKRMITGPQWWARCKQMNVLDSFINYYDSEKHAENAVIFLHGNATSSYLWRHVVPHIEPVARCIIPDLIGMGKSGKSGNGSYRLLDHYKYLTAWFELLNLPKKIIFVGHDWGAALAFHYAYEHQDRIKAIVHMESVVDVIESWDEWPDIEEDIALIKSEEGEKMVLENNFFVETVLPSKIMRKLEPEEFAAYLEPFKEKGEVRRPTLSWPREIPLVKGGKPDVVQIVRNYNAYLRASDDLPKLFIESDPGFFSNAIVEGAKKFPNTEFVKVKGLHFLQEDAPDEMGKYIKSFVERVLKNEQLPETGGAALEAS
modifications: N-His-RLuc8
Luciferase activity over time ([3]; after Coelenterazine 400a addition, data not shown): decreased very rapidly (over a few seconds)
